According to US6579718B1, “Carbazolylvinyl dye protein stains” (Molecular Probes, Inc., priority 2000, dated 2003):

Test system: amino acid homo- and hetero-polymers
Assay: Dye staining of amino acid homo- and hetero-polymers copolymerized into polyacrylamide gel discs
Text: The specificity of protein detection of the present method can be compared to that of silver, CBB, SYPRO Orange dye and SYPRO Red dye staining for a variety of synthetic poly(amino acids) copolymerized into a polyacrylamide gel matrix. To do this, homopolymers of L-arginine, asparagine, histidine, lysine, aspartate, glutamate, alanine, glycine, isoleucine, leucine, methionine, serine, threonine, tryptophan, tyrosine and proline are copolymerized into 15% T, 2.6% C polyacrylamide gels at a concentration of […]. Except when indicated, 0.1% sodium dodecyl sulfate is included in the polyacrylamide solution as well. The amino acid heteropolymers, poly(glutamate, alanine, tyrosine), poly(glutamate, tyrosine), poly(lysine, tyrosine), poly(glutamate, lysine, tyrosine), and poly(arginine, tyrosine) are copolymerized into polyacrylamide gels in an identical manner as the homopolymers. Blank gels containing no polymer are prepared for reference. The co-polymerized gels are cut into discs using the large end of a 1000 microliter pipet tip (Sorenson Bioscience, Inc., West Salt. Lake City, Utah) and stained in Falcon 48 well flat bottom tissue culture plates (Becton-Dickinson, Franklin Lakes, N.J.) on an orbital shaker operating at 50 RPM. Gel discs are quantified on a Roche Lumi-Imager system (Indianapolis, Ind.) and classified into three groups based upon staining intensity (strong, moderate, or weak staining).

[1] = gel discs with 0.1% SDS, no asterisk = moderate

In the case of `CCn1c2ccccc2c2cc(/C=C/c3cc[n+](CCCCS(=O)(=O)[O-])c4ccccc34)ccc21` [Compound 9], the “Staining intensity, Arg homopolymer” value [1] is reported as “Arg*”, the “Staining intensity, Arg:Tyr heteropolymer” value [1] is reported as “Arg:Tyr*” and the “Staining intensity, Glu:Ala:Tyr heteropolymer” value [1] is reported as “Glu:Ala:Tyr*”. For the same molecule, the “Staining intensity, Glu:Lys:Tyr heteropolymer” value [1] was “Glu:Lys:Tyr*”, the “Staining intensity, Glu:Tyr heteropolymer” value [1] was “Glu:Tyr*” and the “Staining intensity, Gly homopolymer” value [1] was “Gly”. For the same molecule, the “Staining intensity, His homopolymer” value [1] was “His*”, the “Staining intensity, Ile homopolymer” value [1] was “Ile” and the “Staining intensity, Lys homopolymer” value [1] was “Lys*”. The “Staining intensity, Lys:Tyr heteropolymer” value [1] was “Lys:Tyr*”, the “Staining intensity, Tyr homopolymer” value [1] was “Tyr*” and the “Change of amino acid polymer staining in phosphate-buffered saline” value (phosphate-buffered saline versus 7% acetic acid) was “not substantially reduced”.
